Results published in patent publication US7667054B2, “Cytotoxic agents comprising new taxanes” (priority 2004, dated 2010).

Experiments:
A549 = test: activity of the taxoids on A549 (procedure of Riou, Naudin and Lavelle); format: cell-based; conditions: Homo sapiens, A549, read-out: A549
Experimental: (§1) The activity of the compounds of the present invention were determined following the proceeding described by Riou, Naudin and Lavelle in Biochemical and Biophysical Research Communications; Vol. 187, No1, 1992, p 164-170.

MCF7 = test: activity of the taxoids on MCF7 (procedure of Riou, Naudin and Lavelle); format: cell-based; conditions: Homo sapiens, MCF7, read-out: MCF7
Experimental: as §1

COLO 205 cells = test: in vitro potency of huC242-Taxoid conjugate and free taxoid, WST-8 assay, antigen positive cells; format: cell-based; conditions: human colon cancer COLO 205 cells (antigen positive), 4 days
Experimental: (§2) Samples of free taxoid or huC242-Taxoid conjugate were added to a 96-well flat bottomed tissue culture plate and titrated using serial dilutions ranging from 1×10^−12 M to 3×10^−7 M. Human colon tumor cells, COLO 205, or human melanoma cells, A-375, were added to the wells in such a way that there were triplicate samples for each drug concentration for each cell line. The plates were incubated at 37° C. in an atmosphere of 5% CO2 for 4 days.
(§3) At the end of the incubation period, 20 μl of the tetrazolium reagent WST-8 (2-(2-methoxy-nitrophenyl)-3-(4-nitrophenyl)-5-(2,4-disulfophenyl)-2-tetrazolium, monosodium salt]) was added to each well, and the plates were returned to the incubator for 2 hours. The absorbance in each well of the plates was then measured using the Molecular Devices plate reader at 450 nm. Surviving fraction of cells at each concentration of taxoid or conjugate are plotted in FIGS. 2a, b.

A-375 cells = test: in vitro potency of huC242-Taxoid conjugate and free taxoid, WST-8 assay, antigen negative cells; format: cell-based, human; conditions: for IC50: human melanoma A-375 cells (antigen negative), 4 days, WST-8
Experimental: as §2, §3

COc1ccc(OC)c(C(=O)O[C@H]2[C@@H]3[C@]4(OC(C)=O)CO[C@@H]4C[C@H]4O[C@@H]([C@H](OC(=O)N(C)C)C5=C(C)[C@@H](OC(=O)[C@H](O)[C@H](C=C(C)C)NC(=O)OC(C)(C)C)C[C@]2(O)C5(C)C)[C@@]34C)c1 [IGT-15-014]
IC50 (A549): 0.03 nM | IC50 (MCF7): 0.024 nM

COc1ccc(OC)c(C(=O)O[C@H]2[C@@H]3[C@]4(OC(C)=O)CO[C@@H]4C[C@H]4O[C@@H]([C@H](OC(=O)NCC(C)(C)SSC)C5=C(C)[C@@H](OC(=O)[C@H](O)[C@@H](NC(=O)OC(C)(C)C)c6ccco6)C[C@]2(O)C5(C)C)[C@@]34C)c1 [IGT-15-075, 7α,9α-epoxy-3′-dephenyl-3′-(2-furyl)-2-debenzoyl-2-(2,5-dimethoxybenzoyl)-10-(N-2,2-dimethyl-2-methyidithio-ethylcarbamoyl)-docetaxel]
IC50 (COLO 205 cells; 96 h): ~0.1 nM | IC50 (A-375 cells; 96 h): ~0.1 nM

B1: huC242-taxoid (conjugate, chains of the INN, looked up)
VH: QVQLVQSGAEVKKPGETVKISCKASDYTFTYYGMNWVKQAPGQGLKWMGWIDTTTGEPTYAQKFQGRIAFSLETSASTAYLQIKSLKSEDTATYFCARRGPYNWYFDVWGQGTTVTVSS
VL: DIVMTQSPLSVPVTPGEPVSISCRSSKSLLHSNGNTYLYWFLQRPGQSPQLLIYRMSNLVSGVPDRFSGSGSGTAFTLRISRVEAEDVGVYYCLQHLEYPFTFGPGTKLELK
modifications: taxoid payload conjugate
IC50 (COLO 205 cells): 0.08 nM | fold less sensitive, antigen negative cells vs COLO 205 (A-375 cells; A-375 versus COLO 205): about 150 fold | IC50 (A-375 cells): 12 nM
